The subject of one test is Malassezia pachydermatis. As to the kind of experiment: Well diffusion, zone of inhibition on Sabouraud dextrose agar. The class given is cell-based. On the procedure: (§1) 1. To determine whether propylene glycol was a suitable solvent to solubilize miconazole. A Mueller-Hinton agar (MH) plate containing a well was inoculated with Staphylococcus pseudintermedius and a Sabouraud dextrose agar (SAB) plate containing a 6 mm well was inoculated with Malassezia pachydermatis. The wells were filled with 50 μL propylene glycol and the MH plate were incubated at 37° C. for 18 to 24 hours and the SAB plate was incubated at 30 to 35° C. for 72 hours. The plates were then observed for any inhibition of microbial growth around the well.
(§2) 2. To determine suitable concentrations of miconazole and PHMB, MH agar plates containing wells were inoculated with S. pseudintermedius and SAB plates containing wells were inoculated with M. pachydermatis. The wells were filled with 50 μL of varying concentrations of miconazole or PHMB. The MH plates were incubated at 37° C. for 18 to 24 hours and the SAB plates were incubated at 30 to 35° C. for 48 hours.
(§3) After incubation, the diameter of the zone of inhibition around the well was measured.

For test [1], the system named is S. pseudintermedius isolates. Put plainly: Agar dilution MIC and FICI, isolates from dogs (Example 3). The class given is cell-based, Staphylococcus pseudintermedius. The note with it: miconazole alone. The protocol: (§4) The miconazole was initially dissolved in propylene glycol but dilutions were prepared by diluting this solution with water. […] Two isolates of Staphylococcus pseudintermedins of different origin were used. After incubation the plates were examined to determine the lowest concentration that inhibited growth of the microbe. The concentrations were used to calculate the Fractional Inhibitory Concentration Index (FICI) which is a measure of synergism between the components in the combination. The FICI is calculated using the following equations: […]≦0.5 Indicates synergy between components FICI>0.5-4.0 indicates no interaction between components FICI>4.0 indicates antagonism between components The procedure from Example 2 was repeated with different bacterial and fungal isolates obtained from dogs with bacterial or fungal infections. Eight S. pseudintermedius isolates obtained from eight different dogs and three M. pachydermatis isolates from three different dogs were analysed.

The test system of test [2] is Staphylococcus pseudintermedius. Put plainly: Agar dilution MIC and FICI (Example 2). It is filed as cell-based. On the procedure: (§5) The MIC of PHMB, miconazole and mixtures of PHMB and miconazole were determined by adding varying concentrations of each component or their combination to molten Mueller-Hinton agar and SAB agar. The miconazole was initially dissolved in propylene glycol but dilutions were prepared by diluting this solution with water.
(§6) The concentrations of miconazole, PHMB or combination of PHMB and miconazole tested included:
(§7) A drop of microbial suspension containing one of: • a) Staphylococcus pseudintermedius and • b) Candida albicans
(§8) was added to a MH agar plate and SAB plate respectively of each concentration of each concentration of miconazole, PHMB and combinations thereof and the MH plates were incubated for 24 to 48 hours at 37° C. and the SAB plates were incubated at 20 to 35° C. for 48 hours. Two isolates of Staphylococcus pseudintermedins of different origin were used.
(§9) After incubation the plates were examined to determine the lowest concentration that inhibited growth of the microbe.
(§10) The concentrations were used to calculate the Fractional Inhibitory Concentration Index (FICI) which is a measure of synergism between the components in the combination. The FICI is calculated using the following equations:
(§11) FICMICONAZOLE=MICMICONAZOLE+PHMB/MICMICONAZOLE
(§12) FICPHMB=MICPHMB+MICONAZOLE/MICPHMB
(§13) FICI=FICMICONAZOLE+FICPHMB
(§14) FICI≦0.5 Indicates synergy between components
(§15) FICI>0.5-4.0 indicates no interaction between components
(§16) FICI>4.0 indicates antagonism between components

A further test relates to Candida albicans. Put plainly: Agar dilution MIC and FICI (Example 2). The class given is cell-based. The note with it: miconazole alone. The protocol:
as §5, §6, §7, §8, §9, §10, §11, §12, §13, §14, §15, §16

Test [3] has as its system M. pachydermatis isolates. As to the kind of experiment: Agar dilution MIC and FICI, isolates from dogs (Example 3). It is filed as cell-based, Malassezia pachydermatis. The conditions noted are these: miconazole alone. The protocol:
as §4

In test [4] the test system is Staphylococcus pseudintermedius. Put plainly: Well diffusion, zone of inhibition on Mueller-Hinton agar. It is filed as cell-based. The conditions noted are these: 37° C. 18 to 24 hours; for Zone of Inhibition: 50 μL per well. On the procedure: as §1, §2, §3

The structures appear in SMILES notation.

Turning to `Clc1ccc(COC(Cn2ccnc2)c2ccc(Cl)cc2Cl)c(Cl)c1` (centres unmarked) [miconazole], the “Zone of Inhibition” value in the test with Malassezia pachydermatis (Miconazole concentration 0.0009%, 50 μL per well, 30 to 35° C. 48 hours) is 25 mm; in test [4] (Miconazole concentration 0.0009%) it was 14-17 mm; in test [4] (Miconazole concentration 0.0019%) it was 14-16 mm; in test [4] (Miconazole concentration 0.0039%) it was 17-18 mm. Besides, the MIC miconazole in test [1] (isolate 1), in test [1] (isolate 2), in test [1] (isolate 3), in test [1] (isolate 4), in test [1] (isolate 5) and in test [1] (isolate 6) was 0.00012% in each case. The MIC miconazole in test [1] (isolate 7) amounted to 0.00012%; in test [1] (isolate 8) it was 0.00012%; in test [3] (isolate 1), 0.00003%; in test [3] (isolate 2) it was 0.00006%; in test [3] (isolate 3) it was 0.000015%. The “MIC Micon %” value in test [2] (miconazole alone, two isolates of different origin) was 0.00012%; in the test with Candida albicans, 0.00095%. Besides, the “concentration at which an antimicrobial effect begins” value in test [2] (used alone) is on record as “about 0.00012 wt %”.

Turning to `CC(O)CO` (centres unmarked) [propylene glycol], the “inhibition of microbial growth around the well” value in the test on Malassezia pachydermatis (50 μL propylene glycol in 6 mm well, 30 to 35° C. 72 hours) was “No zone of inhibition”; in test [4] (50 μL propylene glycol per well), “No zone of inhibition”.

For the origin of these results see US20160128982A1, “ANTIMICROBIAL COMPOSITIONS AND METHODS OF USE” (DERMCARE-VET PTY LTD, priority 2013, published 2016).
